From US10011552B2, “Process for preparation of herbicidal carboxylic acid salts” (ROTAM AGROCHEM INTERNATIONAL COMPANY LIMITED, priority 2013, dated 2018)

Experiment: pH value of the dried carboxylic acid salt in water
Format: physicochemical
Details: dried salt cake dissolved in water

SMILES | pH value in water
Cc1cc(Cl)ccc1OCC(=O)[O-].[K+] [MCPA-potassium] | 9
O=C(O)c1nc(Cl)ccc1Cl.OCCNCCO [clopyralid-bis(2-hydroxyethyl)ammonium] | 8
COc1c(Cl)ccc(Cl)c1C(=O)[O-].[Na+] [dicamba-sodium] | 7
O=C([O-])c1c(Cl)ccc2cc(Cl)cnc12.[Na+] [quinclorac-sodium] | 10
